Laboratory results taken from US20120128654A1, “Allantoin Administration for the Treatment of Neurodegenerative Disease and Neurotrauma” (UNIVERSITY OF CINCINNATI, priority 2009, published 2012).

Columns and labels:
nigral THir neurons = assay: Unbiased stereological counts of THir cells in the substantia nigra after striatal 6-OHDA; assay type: in vivo, Sprague Dawley rats; conditions: experiment 2, KO alone vs control pellet, 4 weeks post-6-OHDA
Experimental: Rats were anesthetized prior to surgery with Equi-Thesin (0.3 ml/100 g body weight i.p.; chloral hydrate 42.5 mg/ml+sodium pentobarbital 9.72 mg/ml), their heads shaved, and then they were placed in a stereotaxic frame. Their skin was swabbed with Betadyne followed by 70% ETOH. The scalp was then opened to expose the skull. Two 1 mm holes were drilled into the skull and rats were injected in two sites in the striatum with 6-OHDA (MP Biomedicals, Solon, Ohio; 5 μg/μl 6-OHDA in 0.2% ascorbic acid, 0.9% saline solution). The coordinates for these injections were AP −1.6 mm, ML +2.4 mm, DV −4.2 mm and AP −0.2 mm, +ML 2.6 mm, DV −7.0 mm. The needle was zeroed at the skull directly above the injection site in order to target the DV coordinate. For each injection, the needle was lowered slowly to the injection site and 1 minute elapsed before injection commenced, 6-OHDA was injected at 0.5 μl/minute and at the end of the injection the needle was held in place for an additional 2 minutes prior to retraction. The wound area was cleaned with Betadine solution and the scalp was closed with surgical wound clips. This lesion paradigm results in a progressive loss of TH phenotype and frank DA cell death.
Animals were deeply anesthetized (60 mg/kg, pentobarbital, i.p.) and perfused intracardially with warm 0.9% saline containing 1 ml/L 10,000 USP heparin followed by ice-cold 0.9% saline. For immunoshistochemistry brains were removed, post fixed for 24 hours in 4% paraformaldehyde and transferred to 30% sucrose in 0.1M PO4 buffer. For determination of purine levels brains were immediately removed and flash frozen in 3-methyl butane. Brains were stored at −80° C. until analysis.
Brains were frozen on dry ice and sectioned at a 40 μm thickness using a sliding microtome. Every sixth section through the SN was processed for labeling with antisera against TH. Following blocking in 10% normal goat serum, tissue was incubated in primary antisera directed against TH (Chemicon MAB318, mouse anti TH 1:4,000) overnight at room temperature. Following primary incubation, sections were incubated in biotinylated secondary antisera against mouse IgG (Chemicon AP124B, 1:400) followed by the Vector ABC detection kit employing horseradish peroxidase (Vector Laboratories, Burlingame, Calif.). Antibody labeling was visualized by exposure to 0.5 mg/ml 3,3′ diaminobenzidine (DAB) and 0.03% H2O2 in Tris buffer. Sections were mounted on subbed slides, dehydrated to xylene and coverslipped with Cytoseal (Richard-Allan Scientific, Waltham, Mass.).
Unbiased stereological counts of THir cells were performed using a BX52 Olympus microscope (Olympus America Inc.) interfaced with Microbrightfield stereological software and a Microfire CCD camera (Optronics, Goleta, Calif.). Utilizing 2 μm guard zones and a 50 μm×50 μm counting frame a grid size of 112 μm×183 μm was employed to assure that all coefficient of error values were ≦0.10. Using the optical fractionator principle, the regions of interest were individually outlined under a low magnification (1.25×). Using a 60× magnification lens with a 1.4 N/A the section thickness was empirically determined by first bringing the top of the section into focus and then using Microbrightfield software to step through the z-axis in 1 μm increments until the very bottom of the section was in focus. […]

striatal 6-OHDA infusion = conditions: peripheral adenosine, Wistar rats; cited from earlier work

| SMILES | number of THir neurons in either the intact or lesioned SN (nigral THir neurons) | neuroprotection against striatal 6-OHDA infusion (striatal 6-OHDA infusion) |
| --- | --- | --- |
| O=C([O-])c1nc(=O)[nH]c(=O)[nH]1.[K+] [KO, potassium oxonate] | no significant impact |  |
| Nc1ncnc2c1ncn2[C@@H]1O[C@H](CO)[C@@H](O)[C@H]1O [adenosine] |  | functional neuroprotection |
